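At the GI50, growth is halved. TGI is the concentration that stops growth completely.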
Assays:
Experiment in all cases: DTP human tumour cell line panel, 384-well format
TK-10 renal = test system: TK-10 renal
T-47D breast = test system: T-47D breast
M14 melanoma = test system: M14 melanoma
HL-60(TB) leukemia = test system: HL-60(TB) leukemia
DU-145 prostate = test system: DU-145 prostate
A498 renal = test system: A498 renal
MDA-MB-231 breast = test system: MDA-MB-231 breast
SK-MEL-28 melanoma = test system: SK-MEL-28 melanoma
SF-539 CNS = test system: SF-539 CNS
K-562 leukemia = test system: K-562 leukemia
OVCAR-8 ovarian = test system: OVCAR-8 ovarian
NCI-H522 lung = test system: NCI-H522 lung
EKVX NSCLC = test system: EKVX NSCLC
HT29 colon = test system: HT29 colon
ACHN renal = test system: ACHN renal
SN12C renal = test system: SN12C renal
MCF7 breast = test system: MCF7 breast
A549 NSCLC = test system: A549 NSCLC
LOX IMVI melanoma = test system: LOX IMVI melanoma
HCT-15 colon = test system: HCT-15 colon
HOP-62 NSCLC = test system: HOP-62 NSCLC
CAKI-1 renal = test system: CAKI-1 renal
HOP-92 NSCLC = test system: HOP-92 NSCLC
HCC-2998 colon = test system: HCC-2998 colon
SF-268 CNS = test system: SF-268 CNS
NCI-H322M lung = test system: NCI-H322M lung
RXF 393 renal = test system: RXF 393 renal
UACC-62 melanoma = test system: UACC-62 melanoma
OVCAR-3 ovarian = test system: OVCAR-3 ovarian
HCT-116 colon = test system: HCT-116 colon
MALME-3M melanoma = test system: MALME-3M melanoma
CCRF-CEM leukemia = test system: CCRF-CEM leukemia
SK-OV-3 ovarian = test system: SK-OV-3 ovarian
PC-3 prostate = test system: PC-3 prostate
KM12 colon = test system: KM12 colon
OVCAR-4 ovarian = test system: OVCAR-4 ovarian
RPMI-8226 leukemia = test system: RPMI-8226 leukemia
SK-MEL-5 melanoma = test system: SK-MEL-5 melanoma
UACC-257 melanoma = test system: UACC-257 melanoma
SW-620 colon = test system: SW-620 colon
HS 578T breast = test system: HS 578T breast
NCI-H226 lung = test system: NCI-H226 lung
SNB-19 CNS = test system: SNB-19 CNS
UO-31 renal = test system: UO-31 renal
786-0 renal = test system: 786-0 renal
U251 glioblastoma = test system: U251 glioblastoma
SNB-75 CNS = test system: SNB-75 CNS
NCI-H460 NSCLC = test system: NCI-H460 NSCLC
MDA-MB-435 melanoma = test system: MDA-MB-435 melanoma
IGROV1 ovarian = test system: IGROV1 ovarian
SF-295 CNS = test system: SF-295 CNS
NCI/ADR-RES ovarian = test system: NCI/ADR-RES ovarian
COLO 205 colon = test system: COLO 205 colon
MOLT-4 leukemia = test system: MOLT-4 leukemia
MDA-MB-468 breast = test system: MDA-MB-468 breast
NCI-H23 lung = test system: NCI-H23 lung
BT-549 breast = test system: BT-549 breast
OVCAR-5 ovarian = test system: OVCAR-5 ovarian

Which GI50 (TK-10 renal) does the source give for `O=C(Oc1ccc([N+](=O)[O-])cc1)N1CCC(C(O)(c2ccc3c(c2)OCO3)c2ccc3c(c2)OCO3)CC1` here?
The GI50 was greater than 100 µM.

And the TGI (TK-10 renal)?
The TGI was greater than 100 µM.

What about the GI50 (T-47D breast) of the same compound?
The GI50 was 2.93 µM.

And the TGI (T-47D breast)?
Its TGI is greater than 100 µM.

And the GI50 (M14 melanoma)?
Its GI50 is greater than 100 µM.

And the TGI (M14 melanoma)?
Its TGI is greater than 100 µM.

And the GI50 (HL-60(TB) leukemia)?
The GI50 was greater than 100 µM.

What about the TGI (HL-60(TB) leukemia) of the same compound?
The TGI was greater than 100 µM.

What about the GI50 (DU-145 prostate) of the same compound?
Its GI50 is greater than 100 µM.

And the TGI (DU-145 prostate)?
The TGI was greater than 100 µM.

What about the GI50 (A498 renal) of the same compound?
The GI50 was greater than 100 µM.

And the TGI (A498 renal)?
The TGI was greater than 100 µM.

And the GI50 (MDA-MB-231 breast)?
The GI50 was greater than 100 µM.

What about the TGI (MDA-MB-231 breast) of the same compound?
Its TGI is greater than 100 µM.

And the GI50 (SK-MEL-28 melanoma)?
Its GI50 is greater than 100 µM.

What about the TGI (SK-MEL-28 melanoma) of the same compound?
Its TGI is greater than 100 µM.

And the GI50 (SF-539 CNS)?
The GI50 was greater than 100 µM.

And the TGI (SF-539 CNS)?
Its TGI is greater than 100 µM.

And the GI50 (K-562 leukemia)?
Its GI50 is greater than 100 µM.

What about the TGI (K-562 leukemia) of the same compound?
The TGI was greater than 100 µM.

And the GI50 (OVCAR-8 ovarian)?
Its GI50 is greater than 100 µM.

What about the TGI (OVCAR-8 ovarian) of the same compound?
Its TGI is greater than 100 µM.

And the GI50 (NCI-H522 lung)?
The GI50 was greater than 100 µM.

What about the TGI (NCI-H522 lung) of the same compound?
Its TGI is greater than 100 µM.

What about the GI50 (EKVX NSCLC) of the same compound?
Its GI50 is greater than 100 µM.

What about the TGI (EKVX NSCLC) of the same compound?
The TGI was greater than 100 µM.

What about the GI50 (HT29 colon) of the same compound?
The GI50 was greater than 100 µM.

And the TGI (HT29 colon)?
The TGI was greater than 100 µM.

What about the GI50 (ACHN renal) of the same compound?
Its GI50 is greater than 100 µM.

What about the TGI (ACHN renal) of the same compound?
Its TGI is greater than 100 µM.

What about the GI50 (SN12C renal) of the same compound?
The GI50 was greater than 100 µM.

What about the TGI (SN12C renal) of the same compound?
The TGI was greater than 100 µM.

What about the GI50 (MCF7 breast) of the same compound?
Its GI50 is greater than 100 µM.

And the TGI (MCF7 breast)?
Its TGI is greater than 100 µM.

And the GI50 (A549 NSCLC)?
The GI50 was greater than 100 µM.

What about the TGI (A549 NSCLC) of the same compound?
Its TGI is greater than 100 µM.

And the GI50 (LOX IMVI melanoma)?
Its GI50 is greater than 100 µM.

What about the TGI (LOX IMVI melanoma) of the same compound?
The TGI was greater than 100 µM.

What about the GI50 (HCT-15 colon) of the same compound?
The GI50 was greater than 100 µM.

And the TGI (HCT-15 colon)?
Its TGI is greater than 100 µM.

And the GI50 (HOP-62 NSCLC)?
Its GI50 is greater than 100 µM.

And the TGI (HOP-62 NSCLC)?
Its TGI is greater than 100 µM.

What about the GI50 (CAKI-1 renal) of the same compound?
Its GI50 is greater than 100 µM.

What about the TGI (CAKI-1 renal) of the same compound?
The TGI was greater than 100 µM.

What about the GI50 (HOP-92 NSCLC) of the same compound?
Its GI50 is 44.5 µM.

What about the TGI (HOP-92 NSCLC) of the same compound?
The TGI was greater than 100 µM.

What about the GI50 (HCC-2998 colon) of the same compound?
The GI50 was 18.2 µM.

And the TGI (HCC-2998 colon)?
Its TGI is greater than 100 µM.

And the GI50 (SF-268 CNS)?
The GI50 was 11.1 µM.

What about the TGI (SF-268 CNS) of the same compound?
The TGI was greater than 100 µM.

And the GI50 (NCI-H322M lung)?
Its GI50 is greater than 100 µM.

And the TGI (NCI-H322M lung)?
The TGI was greater than 100 µM.

What about the GI50 (RXF 393 renal) of the same compound?
The GI50 was 98.7 µM.

What about the TGI (RXF 393 renal) of the same compound?
The TGI was greater than 100 µM.

What about the GI50 (UACC-62 melanoma) of the same compound?
Its GI50 is greater than 100 µM.

What about the TGI (UACC-62 melanoma) of the same compound?
Its TGI is greater than 100 µM.

What about the GI50 (OVCAR-3 ovarian) of the same compound?
The GI50 was greater than 100 µM.

And the TGI (OVCAR-3 ovarian)?
The TGI was greater than 100 µM.

And the GI50 (HCT-116 colon)?
The GI50 was greater than 100 µM.

And the TGI (HCT-116 colon)?
The TGI was greater than 100 µM.

What about the GI50 (MALME-3M melanoma) of the same compound?
The GI50 was greater than 100 µM.

What about the TGI (MALME-3M melanoma) of the same compound?
Its TGI is greater than 100 µM.

What about the GI50 (CCRF-CEM leukemia) of the same compound?
Its GI50 is greater than 100 µM.

What about the TGI (CCRF-CEM leukemia) of the same compound?
Its TGI is greater than 100 µM.

And the GI50 (SK-OV-3 ovarian)?
Its GI50 is greater than 100 µM.

What about the TGI (SK-OV-3 ovarian) of the same compound?
Its TGI is greater than 100 µM.

And the GI50 (PC-3 prostate)?
The GI50 was greater than 100 µM.

What about the TGI (PC-3 prostate) of the same compound?
Its TGI is greater than 100 µM.

What about the GI50 (KM12 colon) of the same compound?
Its GI50 is greater than 100 µM.

And the TGI (KM12 colon)?
The TGI was greater than 100 µM.

What about the GI50 (OVCAR-4 ovarian) of the same compound?
Its GI50 is greater than 100 µM.

What about the TGI (OVCAR-4 ovarian) of the same compound?
Its TGI is greater than 100 µM.

What about the GI50 (RPMI-8226 leukemia) of the same compound?
Its GI50 is greater than 100 µM.

What about the TGI (RPMI-8226 leukemia) of the same compound?
The TGI was greater than 100 µM.

And the GI50 (SK-MEL-5 melanoma)?
The GI50 was greater than 100 µM.

And the TGI (SK-MEL-5 melanoma)?
The TGI was greater than 100 µM.

What about the GI50 (UACC-257 melanoma) of the same compound?
The GI50 was greater than 100 µM.

And the TGI (UACC-257 melanoma)?
The TGI was greater than 100 µM.

And the GI50 (SW-620 colon)?
The GI50 was greater than 100 µM.

And the TGI (SW-620 colon)?
The TGI was greater than 100 µM.

What about the GI50 (HS 578T breast) of the same compound?
Its GI50 is 24.5 µM.

What about the TGI (HS 578T breast) of the same compound?
Its TGI is greater than 100 µM.

What about the GI50 (NCI-H226 lung) of the same compound?
The GI50 was greater than 100 µM.

And the TGI (NCI-H226 lung)?
The TGI was greater than 100 µM.

What about the GI50 (SNB-19 CNS) of the same compound?
Its GI50 is greater than 100 µM.

What about the TGI (SNB-19 CNS) of the same compound?
Its TGI is greater than 100 µM.

And the GI50 (UO-31 renal)?
The GI50 was greater than 100 µM.

And the TGI (UO-31 renal)?
Its TGI is greater than 100 µM.

What about the GI50 ([…]-0 renal) of the same compound?
Its GI50 is greater than 100 µM.

What about the TGI (786-0 renal) of the same compound?
Its TGI is greater than 100 µM.

What about the GI50 (U251 glioblastoma) of the same compound?
Its GI50 is greater than 100 µM.

And the TGI (U251 glioblastoma)?
The TGI was greater than 100 µM.

And the GI50 (SNB-75 CNS)?
The GI50 was 24.6 µM.

And the TGI (SNB-75 CNS)?
Its TGI is greater than 100 µM.

And the GI50 (NCI-H460 NSCLC)?
The GI50 was greater than 100 µM.

And the TGI (NCI-H460 NSCLC)?
The TGI was greater than 100 µM.

And the GI50 (MDA-MB-435 melanoma)?
Its GI50 is greater than 100 µM.

And the TGI (MDA-MB-435 melanoma)?
Its TGI is greater than 100 µM.

And the GI50 (IGROV1 ovarian)?
Its GI50 is greater than 100 µM.

What about the TGI (IGROV1 ovarian) of the same compound?
The TGI was greater than 100 µM.

What about the GI50 (SF-295 CNS) of the same compound?
Its GI50 is greater than 100 µM.

And the TGI (SF-295 CNS)?
Its TGI is greater than 100 µM.

And the GI50 (NCI/ADR-RES ovarian)?
The GI50 was greater than 100 µM.

What about the TGI (NCI/ADR-RES ovarian) of the same compound?
The TGI was greater than 100 µM.

And the GI50 (COLO 205 colon)?
Its GI50 is greater than 100 µM.

What about the TGI (COLO 205 colon) of the same compound?
The TGI was greater than 100 µM.

What about the GI50 (MOLT-4 leukemia) of the same compound?
The GI50 was greater than 100 µM.

What about the TGI (MOLT-4 leukemia) of the same compound?
The TGI was greater than 100 µM.

And the GI50 (MDA-MB-468 breast)?
The GI50 was 32.6 µM.

What about the TGI (MDA-MB-468 breast) of the same compound?
The TGI was greater than 100 µM.

And the GI50 (NCI-H23 lung)?
Its GI50 is greater than 100 µM.

What about the TGI (NCI-H23 lung) of the same compound?
Its TGI is greater than 100 µM.

What about the GI50 (BT-549 breast) of the same compound?
The GI50 was 53.1 µM.

And the TGI (BT-549 breast)?
The TGI was greater than 100 µM.

And the GI50 (OVCAR-5 ovarian)?
The GI50 was greater than 100 µM.

And the TGI (OVCAR-5 ovarian)?
Its TGI is greater than 100 µM.

From PubChem BioAssay (NCI)
